Where two headings read alike, the source gives them in different places.
Experiments:
[1] = in vivo; cited from earlier work
[2] = CYP2D6 Extensive/Ultra Metabolizer
[3] = Drug Titration Period (first 42 days)
[4] = treatment-emergent AE, total follow-up

COCCc1ccc(OCC(O)CNC(C)C)cc1 (stereo not shown) [metoprolol, metoprolol succinate, reference compound]
HEADACHE, % of patients [2]: (4.5%)
HEADACHE, number of patients [2]: 5
HYPOTENSION, % of patients [2]: (8.1%)
HYPOTENSION, number of patients [2]: 9
IMMUNE SYSTEM DISORDERS, % of patients [2]: (0.9%)
IMMUNE SYSTEM DISORDERS, number of patients [2]: 1
INFECTIONS AND INFESTATIONS, % of patients [2]: (20.7%)
INFECTIONS AND INFESTATIONS, number of patients [2]: 23
INFLUENZA, % of patients [2]: (2.7%)
INFLUENZA, number of patients [2]: 3
HEADACHE, % of patients (CYP2D6 Poor Metabolizer): (0.0%)
HEADACHE, number of patients (CYP2D6 Poor Metabolizer): 0
INFECTIONS AND INFESTATIONS, % of patients (CYP2D6 Poor Metabolizer): (12.5%)
INFECTIONS AND INFESTATIONS, number of patients (CYP2D6 Poor Metabolizer): 1
INFLUENZA, % of patients (CYP2D6 Poor Metabolizer): (0.0%)
INFLUENZA, number of patients (CYP2D6 Poor Metabolizer): 0
UPPER RESPIRATORY TRACT INFECTION, % of patients (CYP2D6 Poor Metabolizer): (0.0%)
UPPER RESPIRATORY TRACT INFECTION, number of patients (CYP2D6 Poor Metabolizer): 0
AC mortality or CV hosp or treatment disc. due to AE, patients N (%) [3]: 6 (5%)
All-cause mortality, patients N (%) [3]: 1 (1%)
AEs leading to study withdrawal (excluding death) (GENETIC-AF, all randomized patients): 1.5%
Adverse event leading to death, patients N (%) (Total Study On-Drug Period): 2.3%
Adverse events leading to study withdrawal (excluding death), patients N (%) (Total Study On-Drug Period): 2 (1.5%)
Adverse event leading to death, patients N (%) (Total Study On-Drug Period, listed as Metoprolol): 3 (2.3%)
AE SOC frequency: Cardiac Disorders (human, in vivo): 26.3%
AE SOC frequency: Eye Disorders (human, in vivo): 3.0%
AE SOC frequency: Gastrointestinal Disorders (human, in vivo): 18.0%
AE SOC frequency: Hepatobiliary Disorders (human, in vivo): 2.3%
AE SOC frequency: Infections and Infestations (human, in vivo): 21.8%
AE SOC frequency: Investigators (human, in vivo): 7.5%
AE SOC frequency: Metabolism and Nutrition Disorders (human, in vivo): 12.0%
AE SOC frequency: Musculoskeletal and Connective Tissue Disorders (human, in vivo): 15.0%
AE SOC frequency: Neoplasms Benign Malignant and Unspecified (human, in vivo): 6.8%
AE SOC frequency: Renal and Urinary Disorders (human, in vivo): 9.8%
AE SOC frequency: Respiratory, Thoracic and Mediastinal Disorders (human, in vivo): 10.5%
AE frequency: arthralgia (human, in vivo): 3.8%
AE frequency: cardiac failure (human, in vivo): 3.8%
AE frequency: chronic kidney disease (human, in vivo): 0.8%
AE frequency: constipation (human, in vivo): 1.5%
AE frequency: epistaxis (human, in vivo): 0.0%
AE frequency: hematuria (human, in vivo): 0.0%
AE frequency: hypomagnesaemia (human, in vivo): 0.0%
AE frequency: hypotension (human, in vivo): 7.5%
AE frequency: pneumonia (human, in vivo): 0.8%
AE frequency: upper respiratory tract infection (human, in vivo): 4.5%
AEs leading to permanent study drug discontinuation (human, in vivo): 8.3%
AEs: Bradycardia (human, in vivo): 12.0%
AEs: Stroke (99% on OACs) (human, in vivo): 0.0%
Adverse event possible/probably related to study drug, patients N (%) (human, in vivo): 40 (30.1%)
Adverse events leading to permanent study drug discontinuation, patients N (%) (human, in vivo): 11 (8.3%)
Adverse events related to neoplasm, patients N (%) (human, in vivo): 9 (6.8%)
Any bradycardia event, % of patients (human, in vivo): (12%)
Any bradycardia event, number of patients (human, in vivo): 16
Any bradycardia, % of patients (human, in vivo): (12%)
Any bradycardia, number of patients (human, in vivo): 16
Any serious adverse event, % of patients (human, in vivo): (20%)
Any serious adverse event, number of patients (human, in vivo): 26
Asymptomatic bradycardia event, % of patients (human, in vivo): (8%)
Asymptomatic bradycardia event, number of patients (human, in vivo): 10
Asymptomatic bradycardia, % of patients (human, in vivo): (8%)
Asymptomatic bradycardia, number of patients (human, in vivo): 10
Bradycardia AEs (human, in vivo): 3 (38%)
Bradycardia event leading to study drug discontinuation, % of patients (human, in vivo): (1%)
Bradycardia event leading to study drug discontinuation, number of patients (human, in vivo): 1
Bradycardia event leading to study drug dose interruption, % of patients (human, in vivo): (2%)
Bradycardia event leading to study drug dose interruption, number of patients (human, in vivo): 2
Bradycardia event leading to study drug dose reduction, % of patients (human, in vivo): (8%)
Bradycardia event leading to study drug dose reduction, number of patients (human, in vivo): 11
CAD, % of patients (human, in vivo): (1%)
CAD, number of patients (human, in vivo): 1
Cardiac AE rate (heart failure or bradycardia events) (human, in vivo): 50%
Cardiovascular serious adverse event, % of patients (human, in vivo): (10%)
Cardiovascular serious adverse event, number of patients (human, in vivo): 13
Catheterization, % of patients (human, in vivo): (1%)
Catheterization, number of patients (human, in vivo): 1
EPISTAXIS, % of patients (human, in vivo): (0.0%)
EPISTAXIS, number of patients (human, in vivo): 0
HAEMATURIA, % of patients (human, in vivo): (0.0%)
HAEMATURIA, number of patients (human, in vivo): 0
HYPOMAGNESAEMIA, % of patients (human, in vivo): (0.0%)
HYPOMAGNESAEMIA, number of patients (human, in vivo): 0
Heart block (Mobitz I/II, 2:1, or 3rd degree), % of patients (human, in vivo): (0%)
Heart block (Mobitz I/II, 2:1, or 3rd degree), number of patients (human, in vivo): 0
ICD Implantation, % of patients (human, in vivo): (5%)
ICD Implantation, number of patients (human, in vivo): 7
Incidence of Cr > 3.0, % of patients (human, in vivo): (1%)
Incidence of Cr > 3.0, number of patients (human, in vivo): 1
Incidence of bilirubin > 2.0, % of patients (human, in vivo): (2%)
Incidence of bilirubin > 2.0, number of patients (human, in vivo): 2
Non-CNS Embolism, % of patients (human, in vivo): (0%)
Non-CNS Embolism, number of patients (human, in vivo): 0
Pacemaker Implantation, % of patients (human, in vivo): (2%)
Pacemaker Implantation, number of patients (human, in vivo): 3
SAE SOC frequency: Infections and Infestations (human, in vivo): 3.0%
SAE SOC frequency: Renal and Urinary Disorders (human, in vivo): 1.5%
SAE SOC frequency: Respiratory, Thoracic and Mediastinal Disorders (human, in vivo): 1.5%
SAE frequency: Cardiac Failure (human, in vivo): 2.3%
SAE frequency: Cardiac Failure Congestive (human, in vivo): 5.3%
SAEs: Any cardiovascular event (human, in vivo): 9.8%
Stroke, % of patients (human, in vivo): (0%)
Stroke, number of patients (human, in vivo): 0
Symptomatic bradycardia event, % of patients (human, in vivo): (5%)
Symptomatic bradycardia event, number of patients (human, in vivo): 7
Symptomatic bradycardia, % of patients (human, in vivo): (5%)
Symptomatic bradycardia, number of patients (human, in vivo): 7
TIA, % of patients (human, in vivo): (1%)
TIA, number of patients (human, in vivo): 1
UPPER RESPIRATORY TRACT INFECTION, % of patients (human, in vivo): (4.5%)
UPPER RESPIRATORY TRACT INFECTION, number of patients (human, in vivo): 5
All-cause hospitalization, patients N (%) (human, in vivo, 42 days): 9 (7%)
Any serious adverse event, patients N (%) (human, in vivo, 42 days): 10 (8%)
Asymptomatic bradycardia, patients N (%) (human, in vivo, 42 days): 4 (3%)
Cardiovascular hospitalization, patients N (%) (human, in vivo, 42 days): 4 (3%)
Heart failure hospitalization, patients N (%) (human, in vivo, 42 days): 4 (3%)
Symptomatic bradycardia, patients N (%) (human, in vivo, 42 days): 3 (2%)
Treatment-related cardiovascular serious adverse event, patients N (%) (human, in vivo, 42 days): 0 (0%)
Treatment-related serious adverse event, patients N (%) (human, in vivo, 42 days): 0 (0%)
Ablation, % of patients (in vivo): (14%)
Ablation, number of patients (in vivo): 18
Additional ECV After Successful SR, % of patients (in vivo): (23%)
Additional ECV After Successful SR, number of patients (in vivo): 30
Anti-Arrhythmic Therapy, % of patients (in vivo): (33%)
Anti-Arrhythmic Therapy, number of patients (in vivo): 44
Appropriate Firing of on ICD, % of patients (in vivo): (1%)
Appropriate Firing of on ICD, number of patients (in vivo): 1
Rate Control Therapy, % of patients (in vivo): (11%)
Rate Control Therapy, number of patients (in vivo): 15
TIA, patients (in vivo): One
HEADACHE, % of patients [4]: (3.8%)
HEADACHE, number of patients [4]: 5
INFECTIONS AND INFESTATIONS, % of patients [4]: (21.8%)
INFECTIONS AND INFESTATIONS, number of patients [4]: 29
INFLUENZA, % of patients [4]: (2.3%)
INFLUENZA, number of patients [4]: 3
UPPER RESPIRATORY TRACT INFECTION, % of patients [4]: (4.5%)
UPPER RESPIRATORY TRACT INFECTION, number of patients [4]: 6
INFECTIONS AND INFESTATIONS, % of patients (treatment-emergent serious AE): (3.0%)
INFECTIONS AND INFESTATIONS, number of patients (treatment-emergent serious AE): 4
Bioavailability [1]: approximately 50%
